Measurements as given in patent US20240285594A1, “COMPOSITIONS AND METHODS FOR TREATING PAIN IN ANIMALS” (North Carolina State University, priority 2023, published 2024).

What was measured:
prostaglandin E2 (PGE2) = assay: Serum PGE2 after castration of piglets (Example 3); type: in vivo; settings: intra-inguinal lidocaine; any time point
Experimental: Pairwise comparisons of treatments at −24 h: P≥0.77. […] Pairwise comparisons of treatments at 24 h post-castration: P≥0.11.
The objective of this study was to evaluate the effects of intranasal flunixin and intra-inguinal lidocaine application on the castration associated inflammatory response in piglets, as described in Example 1.

cortisol = assay: Serum cortisol after surgical or sham castration of piglets (Part I, physiological assessment); type: in vivo; settings: 1 h post-castration, castrated piglets, compared to C (saline) and CL, FM 2.2 mg/kg intranasal, buffered lidocaine intra-inguinal
Experimental: A total of 197 Large White×Duroc cross male piglets from 35 litters were enrolled in the study (Table 1). Piglets were individually identified using ear tags (Allflex Global Piglet ear tags, Allflex Livestock Intelligence, Madison, WI), weighed and randomly allocated to one of eight treatment groups (FIG. 1).
Lidocaine was buffered by mixing 2 ml of 8.4% Sodium Bicarbonate to 20 ml of 2% lidocaine HCl injectable solution to achieve a pH of 6.8 (Lidocaine Hydrochloride, Covetrus, Dublin, Ohio, US). […] Piglets were held by both rear legs by one caretaker with the abdomen facing the individual administrating treatment. Buffered lidocaine was injected intra-inguinally (Picture 1) by a second caretaker using a ½ inch needle (Ideal® D3 20 Gauge, Neogen, Lansing, MI) inserted into a syringe (Prima Tech® 2 cc Bottle Mount Vaccinator, Prima Tech USA, Kenansville, NC). A total of 1.5 ml of buffered lidocaine per injection site was administered intramuscularly (IM) into each inguinal canal (left and right) at a 40-degree angle 5-7 cm from the scrotum and 2-3 cm from the abdominal wall. Piglets enrolled in the control treatment (C, S, CF, SF−T1: (C) Castration plus physiological saline (IM and IN; n=25); T2: (S) Sham plus physiological saline (IM and IN; n=25); T5: (CF) Castration plus flunixin (IN; n=25); T6: (SF) Sham plus flunixin (IN; n=24)) were handled in an identical manner and 1.5 ml of sterile saline was injected in the same two locations as described previously.
Immediately following intra-inguinal injection, piglets enrolled in the FM treatment groups were held in sternal recumbency by one individual and 2.2 mg/kg (Banamine®, Merck Animal Health, Madison, NJ, US) was administered in one nostril using was a MAD® nasal intranasal mucosal atomization device (Telefex Incorporated, Wayne, PA, US) attached to a Prima Tech® 0.5 cc bottle mount vaccinator. The same individual administered the treatment by gently holding the piglet's snout using their non-dominant hand to steady the head and administered the drug with the other hand. Piglets in the control group were handled in the same manner in an equivalent volume of 0.2 ml of sterile saline was administered as described above.
Castration was performed by one trained caretaker from the farm. Piglets were picked up, individually held by both hind legs with head down, and two vertical incisions were made through the skin of the scrotum over each testicle using a scalpel blade. Once the incisions were made, testicles were exposed, spermatic cords cut, and testicles were completely removed by traction. A sham castration was performed to mimic similar handling conditions in which piglets were picked up, held in the same manner, and had pressure applied to the scrotal area by the same individual responsible for castration.
Blood was collected 24 h prior to (−24 h), 1 h (1 h), and 24 h post castration (24 h, FIG. 2). Blood samples were collected using the technique described in other studies. The orbital sinus cavity was punctured using an Excel® disposable hypodermic needle 20G (Exel International, Quebec, Canada) and deposited into a 4 ml BD® red vacutainer serum tube (Med Vet International, Mettawa, IL). All tubes were maintained in a cooler and centrifuged (2,000×g for 15 min at 4° C.) no more than eight hours post-collection to separate serum. […]
Serum cortisol concentrations were quantified using a commercially available EIA kit (Arbor Assays DetectX Cortisol EIA Kit, Product #K003). […]

[1] = UPAPS behavioral pain scoring and rescue analgesia after castration (Part II); type: in vivo, piglets; settings: -1 h, 0 h and +3 h relative to castration; compared to C (saline)
Experimental: Behavior scoring was obtained in real-time by observing each piglet for 4-min continuously using Unesp-Botucatu pig acute pain scale (UPAPS). Each piglet was scored by one trained observer at the following timepoints: 1 h before castration (−1 h), immediately post-castration (0 h), and 3 h post-castration (+3 h, FIG. 3). The 4-min sampling time was obtained from the methodology previously validated. Treatments were masked, randomized, and applied to each piglet by a senior researcher. The Unesp-Botucatu UPAPS scale evaluates five behavioral items, with each item divided into four descriptive levels. A numerical score was designated from “0” to “3”, with a “0” representing normal behavior (free of pain) and “3” corresponding to pronounced behavioral deviation (severe pain). Therefore, for each timepoint, piglets may receive a score ranging from 0 (min) to 15 (max; Table 3). Total pain scores were then calculated for each piglet per timepoint. […] This is most referred to rescue analgesia in the literature; and was conducted for each behavioral assessment. Total counts were calculated for piglets identified as requiring or not requiring rescue analgesia by treatment and timepoint. […]

SMILES: CCN(CC)CC(=O)Nc1c(C)cccc1C [Buffered lidocaine, lidocaine]
- inflammation (PGE2) (prostaglandin E2 (PGE2)): did not mitigate inflammation
- cortisol concentrations (cortisol): no effect
- cortisol concentrations (cortisol; listed as CL): not different
- total UPAPS scores [1]: no effect
